Legend:
[1] = Elution of Compound A from loaded microspheres using the T-Apparatus; assay type: physicochemical; details: 50 mL PBS pH 7.4, 25° C.
Method: The microspheres loaded with Compound A were eluted into 50 mL of phosphate buffer solution (PBS, pH 7.4) at 25° C. using a T-Apparatus (Lewis A L, Gonzalez M V, Lloyd A W, et al. DC bead: in vitro characterization of a drug-delivery device for transarterial chemoembolization. J Vasc Interv Radiol, 2006, 17: 335-42). The concentration of Compound A was determined using HPLC method.
(§1) HPLC was performed using the following instrument and/or conditions: […]

[2] = Compound A loading onto CalliSpheres microspheres (residual concentration by HPLC); assay type: physicochemical; details: for Concentration of Residual: 1 g microspheres 100-300 μm, 2 mg in 4 ml NaOAc/HOAc buffer 100 mM pH5.0; for Amount of Compound Loaded: onto 1 g microspheres
Method: Microspheres (1 g, 100-300 μm, CalliSpheres® CallisynBiomedical, Inc.) were immersed into Compound A solution (2 mg in 4 ml of NaOAc/HOAc buffer (100 mM, pH5.0)) using a 10 mL disposable syringe. Residual compound concentration remaining in the depleted loading solution over time was determined by HPLC method.
as §1

Na+/K+-ATPase = Na+/K+-ATPase inhibition; assay type: biochemical; details: read-out: IC50 against Na+/K+-ATPase

Structure (SMILES): C[C@]12CC[C@H](OC(=O)N3CCNCC3)C[C@H]1CC[C@@H]1[C@@H]2CC[C@]2(C)[C@@H](c3ccc(=O)oc3)CC[C@]12O [Compound A, (3S,5R,8R,9S,10S,13R,14S,17R)-14-hydroxy-10,13-dimethyl-17-(2-oxo-2H-pyran-5-yl)hexadecahydro-1H-cyclopenta[α]phenanthren-3-yl piperazine-1-carboxylate]
- Amount of Compound Eluted ([1]; time 0.083 h): 0.63 mg
- Concentration of Compound Eluted ([1]; time 0.083 h): 13000 ng/mL
- Amount of Compound Eluted ([1]; time 0.5 h): 0.67 mg
- Concentration of Compound Eluted ([1]; time 0.5 h): 14000 ng/mL
- Amount of Compound Eluted ([1]; time 0.75 h): 0.70 mg
- Concentration of Compound Eluted ([1]; time 0.75 h): 14000 ng/mL
- Amount of Compound Eluted ([1]; time 1 h): 0.70 mg
- Concentration of Compound Eluted ([1]; time 1 h): 14000 ng/mL
- Amount of Compound Eluted ([1]; time 2 h): 0.76 mg
- Concentration of Compound Eluted ([1]; time 2 h): 15000 ng/mL
- Amount of Compound Eluted ([1]; time 4 h): 0.94 mg
- Concentration of Compound Eluted ([1]; time 4 h): 19000 ng/mL
- Amount of Compound Eluted ([1]; time 6 h): 1.10 mg
- Concentration of Compound Eluted ([1]; time 6 h): 22000 ng/mL
- Amount of Compound Eluted ([1]; time 24 h): 1.21 mg
- Concentration of Compound Eluted ([1]; time 24 h): 24000 ng/mL
- Concentration of Residual ([2]; time 0 h): 458000 ng/mL
- Amount of Compound Loaded ([2]; time 0 h): 0 mg
- Concentration of Residual ([2]; time 0.25 h): 91000 ng/mL
- Amount of Compound Loaded ([2]; time 0.25 h): 1.47 mg
- Concentration of Residual ([2]; time 0.5 h): 81000 ng/mL
- Amount of Compound Loaded ([2]; time 0.5 h): 1.51 mg
- Concentration of Residual ([2]; time 0.75 h): 83000 ng/mL
- Amount of Compound Loaded ([2]; time 0.75 h): 1.50 mg
- Concentration of Residual ([2]; time 1 h): 60000 ng/mL
- Amount of Compound Loaded ([2]; time 1 h): 1.59 mg
- IC50 (Na+/K+-ATPase): ~20 nM
